The values below come from patent US20210132065A1, “MAMMALIAN MHC PEPTIDE DISPLAY AS AN EPITOPE SELECTION TOOL FOR VACCINE DESIGN” (ETH Zürich, priority 2018, published 2021).

Like-named read-outs stand apart in the source and are kept apart here. Where no end group is shown, it is not given here.

In one test the test system is HLA DRB 1-4. The following applies: published studies; cited from earlier work.
The test system of another test is HLA-DRB1_4. In kind it is cell-based, human. The following applies: for MCR surface expression: peptide covalently linked to beta chain, anti-HLA-DR APC antibody, FACS.

For “MP1 103-117: MP1 peptide comprising amino acids 103-117, known from published studies (Schmid et al Immunity 2007) (LKREITFHGAKEISL; UniProt P03485 103-117, looked up, fragment)”, in the test with HLA DRB 1-4, the “presentation by HLA” value is on record as “efficiently presented”. Take “MP1 107-121: MP1 peptide comprising amino acids 107-121, known from published studies (Schmid et al Immunity 2007) (ITFHGAKEISLSYSA; UniProt P03485 107-121, looked up, fragment)”: the “presentation by HLA” value in the test on HLA DRB 1-4 was “efficiently presented”.

Regarding “MP162-72: influenza Matrix Protein 1-derived peptide comprising amino acids 62-72, covalently linked to the HLA beta chain of the MCR (FVFTLTVPSER; also: covalently linked to HLA beta chain of the MCR; UniProt P03485 62-72, looked up, fragment)”, the MCR surface expression result in the test on HLA-DRB1_4 is “not the other HLAs tested”. “MP1103-120: influenza Matrix Protein 1 peptide, amino acids 103-120, covalently linked to the HLA beta chain of the MCR (LKREITFHGAKEISLSYS; also: covalently linked to HLA beta chain of the MCR; UniProt P03485 103-120, looked up, fragment)”: the MCR surface expression entry with HLA-DRB1_4 was “efficient surface expression”; in the test with HLA-DRB1_4 (listed as MP1103-121) it was “high surface expression”.

As to “MP1107-117: core epitope of influenza Matrix Protein 1, amino acids 107-117, tested within peptides with different flanking regions (ITFHGAKEISL; UniProt P03485 107-117, looked up, fragment)”, in the test on HLA-DRB1_4 (FIG. 6, anti-CD3e or anti-HLA-DR PE antibodies, peptides containing the core epitope with different flanking regions), the “presentation (MCR surface expression)” value was “efficiently be presented”.
